Measurements as given in patent US11926643B2, “Heterocyclic GLP-1 agonists” (Gasherbrum Bio, Inc., priority 2020, dated 2024).
Where two headings read alike, the source gives them in different places.

Target: GLP-1 Receptor (Homo sapiens, UniProt P43220)
Experiment: GLP-1R agonist cAMP stimulation assay (Method 3, HEK293/GLP1R/CRE-LUC, HDB)
Assay type: cell-based
Conditions: HDB HEK293/CRE-Luc cell line
Description: The methodology for detection of cAMP using EFC requires incubation with 20 μL of cAMP XS+ED/CL lysis cocktail for one hour followed by incubation with 20 μL cAMP XS+EA reagent for three hours at room temperature. Microplates are read following signal generation with a PerkinElmer Envision instrument utilizing chemiluminescent signal detection. Compound activity is analyzed using CBIS data analysis suite (ChemInnovation, CA). Percentage activity is calculated using the following formula: % Activity=100%×(mean RLU of test sample−mean RLU of vehicle control)/(mean RLU of MAX control−mean RLU of vehicle control)) Method 3: Activation of GLP-1 receptor is known to stimulate cyclic AMP (cAMP) production in cells which indicates primary coupling to the Gαs subunit of the G protein heterotrimeric complex.
To optimize functional activity directed toward Gαs coupling, a HEK293/CRE-Luc cell line developed by HDB stably expressing the GLP-1 Receptor was used. 200× concentration of compound working solutions were prepared (Agilent Technologies Bravo) with 1/2 log serial dilution in 384-well Echo LDV plate (Labcyte, Cat #LP-0200). 50 nL/well 200× concentration of compound working solutions were moved to 384-well white low volume plate (Greiner, Cat #784075) using Labcyte ECHO550. 1×10^5 cells/mL HEK293/GLP1R/CRE-LUC(HD Biosciences) cell suspensions prepared with assay buffer [DPBS containing 0.5 mM IBMX(Sigma, Cat #15879) and 0.1% BSA(GENVIEW, Cat #FA016-100 g)], 10 μL cell suspensions were added to each well of previous generated assay plate which already contains 50 nL compound at 200× concentration using ThermoFisher Multidrop Combi (1000 cells/well). Seal the plate and incubate at 37° C. with 5% CO2 for 30 min.
After incubation the cAMP assay signal was generated using cAMP dynamic 2 Kit (Cisbio). 5 μL cAMP-d2 working solution was added to each well, followed with 5 μL Anti-cAMP antibody-cryptate working solution added to each well using ThermoFisher Multidrop Combi. Incubate at room temperature for 1 hour protected from light. […] (Method 3)

[1] = read-out: GLP1R cAMP Stimulation DR: EC50 (nM) [Species: Human, Assay Cell Line: HDB]
[2] = read-out: GLP1R cAMP Stimulation DR: pEC50 (M) [Species: Human, Assay Cell Line: HDB] (converted)

GLP-1 Receptor, sequence (P43220 24-463): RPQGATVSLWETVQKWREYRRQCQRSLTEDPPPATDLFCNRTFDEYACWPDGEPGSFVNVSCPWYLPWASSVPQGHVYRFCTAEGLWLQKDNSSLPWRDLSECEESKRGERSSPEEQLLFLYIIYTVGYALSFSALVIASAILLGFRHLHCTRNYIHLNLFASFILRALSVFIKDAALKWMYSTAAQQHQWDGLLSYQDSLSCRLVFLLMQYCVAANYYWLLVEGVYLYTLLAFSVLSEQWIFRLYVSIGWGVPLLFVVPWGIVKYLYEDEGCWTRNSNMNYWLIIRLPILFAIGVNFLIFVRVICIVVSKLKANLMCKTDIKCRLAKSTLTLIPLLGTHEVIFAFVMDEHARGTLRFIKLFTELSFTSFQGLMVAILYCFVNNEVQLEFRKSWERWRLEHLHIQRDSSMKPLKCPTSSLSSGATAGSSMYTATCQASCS

| Structure (SMILES) | EC50 [1] | EC50 [2] |
| --- | --- | --- |
| CCP(=O)(CC)c1ccc(-n2ccn(-c3c4c(nn3-c3cc(C)c(F)c(C)c3)CCN(C(=O)c3cc5cc([C@H]6CCOC(C)(C)C6)ccc5n3[C@@]3(c5noc(=O)[nH]5)C[C@@H]3C)[C@H]4C)c2=O)cc1 [Compound 130b, 3-((1S,2S)-1-(2-((S)-3-(3-(4-(diethylphosphoryl)phenyl)-2-oxo-2,3-dihydro-1H-imidazol-1-yl)-2-(4-fluoro-3,5-dimethylphenyl)-4-methyl-4,5,6,7-tetrahydro-2H-pyrazolo[4,3-c]pyridine-5-carbonyl)-5-((S)-2,2-dimethyltetrahydro-2H-pyran-4-yl)-1H-indol-1-yl)-2-methylcyclopropyl)-1,2,4-oxadiazol-5 (4H)-one] | < 0.1 nM | ≤ 0.1 nM |
| Cc1cc(-n2nc3c(c2-n2ccn(-c4ccc(P(C)(C)=O)cc4)c2=O)[C@H](C)N(C(=O)c2cc4cc(C5CCOC(C)(C)C5)ccc4n2[C@@]2(c4noc(=O)[nH]4)C[C@@H]2C)CC3)cc(C)c1F (stereo partly drawn) [Compound 102a, 3-((1S,2S)-1-(2-((S)-3-(3-(4-(dimethylphosphoryl)phenyl)-2-oxo-2,3-dihydro-1H-imidazol-1-yl)-2-(4-fluoro-3,5-dimethylphenyl)-4-methyl-4,5,6,7-tetrahydro-2H-pyrazolo[4,3-c]pyridine-5-carbonyl)-5-(2,2-dimethyltetrahydro-2H-pyran-4-yl)-1H-indol-1-yl)-2-methylcyclopropyl)-1,2,4-oxadiazol-5 (4H)-one] | < 0.1 nM | ≤ 0.1 nM |

The next lines start with the values.

| EC50 [1] | EC50 [2] | Structure (SMILES) |
| --- | --- | --- |
| 0.1 to 0.2 nM | 0.1 to 1 nM | CNc1cc(-n2ccn(-c3c4c(nn3-c3cc(C)c(F)c(C)c3)CCN(C(=O)c3cc5cc(C6CCOCC6)ccc5n3[C@@]3(c5noc(=O)[nH]5)C[C@@H]3C)[C@H]4C)c2=O)ccc1P(C)(=O)C(C)(C)C (stereo partly drawn) [Compound 131a, 3-((1S,2S)-1-(2-((4S)-3-(3-(4-(tert-butyl(methyl)phosphoryl)-3-(methylamino)phenyl)-2-oxo-2,3-dihydro-1H-imidazol-1-yl)-2-(4-fluoro-3,5-dimethylphenyl)-4-methyl-4,5,6,7-tetrahydro-2H-pyrazolo[4,3-c]pyridine-5-carbonyl)-5-(tetrahydro-2H-pyran-4-yl)-1H-indol-1-yl)-2-methylcyclopropyl)-1,2,4-oxadiazol-5 (4H)-one] |
| 0.1 to 0.2 nM | 0.1 to 1 nM | CNc1cc(-n2ccn(-c3c4c(nn3-c3cc(C)c(F)c(C)c3)CCN(C(=O)c3cc5cc(C6CCOCC6)ccc5n3C3(c5noc(=O)[nH]5)CC3)[C@H]4C)c2=O)ccc1P(C)(=O)C(C)(C)C (stereo partly drawn) [Compound 149a, 3-(1-(2-((4S)-3-(3-(4-(tert-butyl(methyl)phosphoryl)-3-(methylamino)phenyl)-2-oxo-2,3-dihydro-1H-imidazol-1-yl)-2-(4-fluoro-3,5-dimethylphenyl)-4-methyl-4,5,6,7-tetrahydro-2H-pyrazolo[4,3-c]pyridine-5-carbonyl)-5-(tetrahydro-2H-pyran-4-yl)-1H-indol-1-yl)cyclopropyl)-1,2,4-oxadiazol-5 (4H)-one] |
| < 0.1 nM | ≤ 0.1 nM | CCP(=O)(CC)c1ccc(-n2ccn(-c3c4c(nn3-c3cc(C)c(F)c(C)c3)CCN(C(=O)c3cc5cc(C6CCOCC6)ccc5n3[C@@]3(c5noc(=O)[nH]5)C[C@@H]3C)[C@H]4C)c2=O)cc1C(F)F [Compound 142a, 3-((1S,2S)-1-(2-((S)-3-(3-(4-(diethylphosphoryl)-3-(difluoromethyl)phenyl)-2-oxo-2,3-dihydro-1H-imidazol-1-yl)-2-(4-fluoro-3,5-dimethylphenyl)-4-methyl-4,5,6,7-tetrahydro-2H-pyrazolo[4,3-c]pyridine-5-carbonyl)-5-(tetrahydro-2H-pyran-4-yl)-1H-indol-1-yl)-2-methylcyclopropyl)-1,2,4-oxadiazol-5 (4H)-one] |
